Reference: patent US20240081328A1, “Use of 4-Nitro-3-(Trifluoromethyl)Phenol in Killing or Controlling Pomacea Canaliculata, Method for Killing or Controlling Pomacea Canaliculata, and Molluscicide” (priority 2021, published 2024)
Read-outs that look alike come from different tables or passages of the source.

Tested on: Pomacea canaliculata
Test: Immersion test of dilutions in beakers, mortality rate of Pomacea canaliculata
Type: in vivo
Settings: for mortality at 0.0039 µg/mL / mortality at 0.0078 µg/mL / mortality at 0.0156 µg/mL / mortality at 0.0312 µg/mL / mortality at 0.0625 µg/mL / mortality at 0.125 µg/mL / mortality at 0.25 µg/mL / mortality at 0.5 µg/mL: Pomacea canaliculata, read-out: Mortality rate (%) of Pomacea canaliculata at different action time (h); for mortality at 0.0039 µg/mL: 0.0039 mg/L; for mortality at 0.0078 µg/mL: 0.0078 mg/L; for mortality at 0.0156 µg/mL: 0.0156 mg/L; for mortality at 0.0312 µg/mL: 0.0312 mg/L; for mortality at 0.125 µg/mL: 0.125 mg/L; for mortality at 0.25 µg/mL: 0.25 mg/L; for mortality at 0.5 µg/mL: 0.5 mg/L
Experimental: 0.5 mg of 4-nitro-3-(trifluoromethyl)phenol and 0.5 mg of niclosamide were completely dissolved in 1 mL of a dimethyl sulfoxide (DMSO) solution separately, and diluted to 1,000 mL with deaminized water to obtain a 4-nitro-3-(trifluoromethyl)phenol solution with a concentration of 0.5 mg/L and a niclosamide solution with a concentration of 0.5 mg/L.
The two solutions were separately diluted into 7 concentrations of dilutions using a doubling dilution method, including 0.25 mg/L, 0.125 mg/L, 0.0625 mg/L, 0.0312 mg/L, 0.0156 mg/L, and 0.0078 mg/L, and 0.0039 mg/L.
400 mL of the dilutions with different concentrations were separately poured into a 500 mL beaker, 10 Pomacea canaliculata samples were put into the dilution of each concentration, and each bottle mouth was sealed with wire mesh to completely immerse the Pomacea canaliculata in the dilution; clear water was used as a control group.
The experimental data were used to calculate the mortality rate of each treatment according to the following formula. Each calculation result was rounded to two decimal places. A formula for calculating the mortality rate was: […]
In the formula: P represented the mortality rate, in percentage (%); Σ^Ki represented • the number of dead Pomacea canaliculata, in snails; Σ^Ni represented the total number of treated Pomacea canaliculata, in snails.

Structure (SMILES): O=[N+]([O-])c1ccc(O)cc1C(F)(F)F [4-nitro-3-(trifluoromethyl)phenol]
- killing of Pomacea canaliculata (in words) (0.0625 mg/L, action time of 24 h): could kill all Pomacea canaliculata
- mortality at 0.0039 µg/mL (action time 0 h): 0%
- mortality at 0.0039 µg/mL (action time 12 h): 0%
- mortality at 0.0039 µg/mL (action time 24 h): 20%
- mortality at 0.0039 µg/mL (action time 36 h): 50%
- mortality at 0.0039 µg/mL (action time 48 h): 50%
- mortality at 0.0039 µg/mL (action time 60 h): 50%
- mortality at 0.0039 µg/mL (action time 72 h): 70%
- mortality at 0.0078 µg/mL (action time 0 h): 0%
- mortality at 0.0078 µg/mL (action time 12 h): 0%
- mortality at 0.0078 µg/mL (action time 24 h): 40%
- mortality at 0.0078 µg/mL (action time 36 h): 100%
- mortality at 0.0078 µg/mL (action time 48 h): 100%
- mortality at 0.0078 µg/mL (action time 60 h): 100%
- mortality at 0.0078 µg/mL (action time 72 h): 100%
- mortality at 0.0156 µg/mL (action time 0 h): 0%
- mortality at 0.0156 µg/mL (action time 12 h): 10%
- mortality at 0.0156 µg/mL (action time 24 h): 100%
- mortality at 0.0156 µg/mL (action time 36 h): 100%
- mortality at 0.0156 µg/mL (action time 48 h): 100%
- mortality at 0.0156 µg/mL (action time 60 h): 100%
- mortality at 0.0156 µg/mL (action time 72 h): 100%
- mortality at 0.0312 µg/mL (action time 0 h): 0%
- mortality at 0.0312 µg/mL (action time 12 h): 30%
- mortality at 0.0312 µg/mL (action time 24 h): 100%
- mortality at 0.0312 µg/mL (action time 36 h): 100%
- mortality at 0.0312 µg/mL (action time 48 h): 100%
- mortality at 0.0312 µg/mL (action time 60 h): 100%
- mortality at 0.0312 µg/mL (action time 72 h): 100%
- mortality at 0.0625 µg/mL (0.0625 mg/L, action time 0 h): 0%
- mortality at 0.0625 µg/mL (0.0625 mg/L, action time 12 h): 70%
- mortality at 0.0625 µg/mL (0.0625 mg/L, action time 24 h): 100%
- mortality at 0.0625 µg/mL (0.0625 mg/L, action time 36 h): 100%
- mortality at 0.0625 µg/mL (0.0625 mg/L, action time 48 h): 100%
- mortality at 0.0625 µg/mL (0.0625 mg/L, action time 60 h): 100%
- mortality at 0.0625 µg/mL (0.0625 mg/L, action time 72 h): 100%
- mortality at 0.125 µg/mL (action time 0 h): 0%
- mortality at 0.125 µg/mL (action time 12 h): 100%
- mortality at 0.125 µg/mL (action time 24 h): 100%
- mortality at 0.125 µg/mL (action time 36 h): 100%
- mortality at 0.125 µg/mL (action time 48 h): 100%
- mortality at 0.125 µg/mL (action time 60 h): 100%
- mortality at 0.125 µg/mL (action time 72 h): 100%
- mortality at 0.25 µg/mL (action time 0 h): 0%
- mortality at 0.25 µg/mL (action time 12 h): 100%
- mortality at 0.25 µg/mL (action time 24 h): 100%
- mortality at 0.25 µg/mL (action time 36 h): 100%
- mortality at 0.25 µg/mL (action time 48 h): 100%
- mortality at 0.25 µg/mL (action time 60 h): 100%
- mortality at 0.25 µg/mL (action time 72 h): 100%
- mortality at 0.5 µg/mL (action time 0 h): 0%
- mortality at 0.5 µg/mL (action time 12 h): 100%
- mortality at 0.5 µg/mL (action time 24 h): 100%
- mortality at 0.5 µg/mL (action time 36 h): 100%
- mortality at 0.5 µg/mL (action time 48 h): 100%
- mortality at 0.5 µg/mL (action time 60 h): 100%
- mortality at 0.5 µg/mL (action time 72 h): 100%
- Pomacea canaliculata killing activity / control effect compared with niclosamide (overall conclusion from Tables 2 and 3): comparable to that of the niclosamide
- killing effect on the Pomacea canaliculata (in words) (overall conclusion from the examples): obvious killing effect
